This assay concerns T1, horseradish peroxidase (HRP).
T1 construct: gene PRXC1A; natural HRP
In words: steady-state kinetics, Michaelis-Menten fit, absorbance of oxidised TMB ([…] nm). It counts as biochemical, Armoracia rusticana. As to conditions: co-substrate H2O2; acetate buffer pH 3.6 (printed for the nanozyme assay).

As usually defined, the Km is the concentration of substrate that gives half-maximal velocity. For `Cc1cc(-c2cc(C)c(N)c(C)c2)cc(C)c1N` [3,3′,5,5′-tetramethylbenzidine], the Michaelis-Menten constant (Km) stood at 427 µM.
